Consider 1 molecule from patent US20150065709A1, “Aminoquinazoline Derivative And Use Thereof In Preparing Anti-Malignant Tumor Medicament” (METABOMICS, INC, priority 2012, published 2015).

Each structure is given as a SMILES string.

One data set deals with A549. Briefly: Inhibition of tumor cells, WST method. Type of data set: cell-based. To be noted: Homo sapiens, 48 hours. How it is done: (§1) (1) Compounds: in vitro studies the test compounds was dissolved in 100% DMSO and diluted until the final concentration of DMSO was 0.1%. The 0.1% (v/v) DMSO was added into culture medium as solvent control. 9 concentration gradients were tested and each gradient was repeated twice. (2) Tumor cell lines: the tumor cell lines were cultivated in RPMI10 culture medium containing 10% fetal calf serum in incubator at 37° C. in a 5% CO2 air incubator. The tested tumor cell lines were: BT474, MDA-MB-231, SK-Br-3, A431, H292, H1975, HCC827, A549, H1650 and H1734. (3) MTS method: cells were seeded into 96-well plate to give a density of about 3000 cells per well, and incubated overnight in a humidified incubator at 37° C. In the next day, the test compounds were added to the wells and further incubated for 72 hours. The cell activity was detected using MTS. IC50 was calculated (the concentration of a compound that is required for 50% inhibition of the cell growth versus the DMSO control group, using nonlinear regression analysis of software GraphPad Prism). […] In a 96-well plate, each test compound was tested at 9 dosage concentrations and each dosage was made in triplicate. Samples were added in 100 μL/well. Cell control and negative control wells contained diluents instead of compounds. Except the negative control well, 100 μL cell suspension of complete medium was added into each test well, wherein corresponding cell numbers were included to assure that the cells in cell control well just cover the bottom of the well as the required incubation time was reached. The plate was incubated in a CO2 incubator at 37° C. for 48 hours. The liquid in test wells was removed by pipetting. 100 μL CCK-8 (Cell counting Kit-8, purchased from DOJINDO Molecular Technologies) detection liquid (containing 10% CCK-8, 5% FBS corresponding medium) was added into each test well, then the plate was incubated in a CO2 incubator under at 37° C. for 3 hours. OD value was detected by ELIASA at A450 nm. Cell viability percentage (%)=(O.D. test compound-O.D. blank)/(O.D. control-O.D. blank)×100. Mean value was calculated for each 3 repeated wells, and IC50 was calculated using nonlinear regression (fitted curve) data analysis method.
(§2) Parts of test results of compound Ie listed in the table 3 and all of the test results listed in the table 4 were obtained by WST method.

For another data set, the system named is CW-2. Briefly: Inhibition of tumor cells, WST method. In kind it is cell-based. To be noted: Homo sapiens, Colon. The procedure: as §1, §2
A further data set deals with C-33A. Briefly: Inhibition of tumor cells, WST method. Type of data set: cell-based. To be noted: Homo sapiens, Uterine Neck. How it is done: as §1, §2
The next data set relates to H1650. The experiment in a line: Inhibition of tumor cells, WST method. In kind it is cell-based. To be noted: Homo sapiens, NCI-H1650, 48 hours. The procedure: as §1, §2
Another data set concerns NCI-N87. Briefly: Inhibition of tumor cells, WST method. Type of data set: cell-based. To be noted: Homo sapiens, Stomach. How it is done:
as §1, §2

A further data set concerns NCI-H2126. The experiment in a line: Inhibition of tumor cells, WST method. In kind it is cell-based. To be noted: Homo sapiens, Lung. The procedure: as §1, §2
The next data set deals with A431. Briefly: Inhibition of tumor cells, WST method. Type of data set: cell-based. To be noted: Homo sapiens, A-431, 48 hours. The procedure: as §1, §2
The next data set has as its system NCI-H358. The experiment in a line: Inhibition of tumor cells, WST method. Type of data set: cell-based. To be noted: Homo sapiens, Lung. The procedure:
as §1, §2

In the next data set the test system is FaDu. Briefly: Inhibition of tumor cells, WST method. Type of data set: cell-based. To be noted: Homo sapiens, Head and Neck. How it is done: as §1, §2
Another data set concerns NUGC-3. The experiment in a line: Inhibition of tumor cells, WST method. Type of data set: cell-based. To be noted: Homo sapiens, Stomach. How it is done: as §1, §2
For another data set, the system named is N87(gastric cancer). The experiment in a line: Transplanted tumor in nude mice, N87 model. Type of data set: in vivo, nude mice (BALB/c). The source says:
Furthermore, more pharmacological models of tumor cell lines in nude mice were utilized to validate the inhibitory effects of compound Ie. The test method was specifically described as follows: H1975, A549, HCC827, A431, N87, MDA-MD-468 and CAL27 tumor cells respectively were inoculated into nude mice (BALB/c, male, 5-6 weeks of age), and when the mean tumor volume reaches 150 mm^3 mice was randomized into groups. The H1975 tumor model in nude mice includes one positive control group and three dosage groups of compound Ie (6.7 mg/kg/day, 13.4 mg/kg/day, and 20.1 mg/kg/day. The A549 tumor model in nude mice includes one positive control group, two dosage groups of compound Ie (10 mg/kg/day, 20 mg/kg/day), and one dosage group of Docetaxel (12 mg/kg/day). The HCC827 tumor model in nude mice includes one positive control group, two dosage groups of compound Ie (0.5 mg/kg/day, 2.5 mg/kg/day), and one dosage group of Erlotinib (12.5 mg/kg/day). The A431 tumor model in nude mice includes one positive control group, two dosage groups of compound Ie (2.5 mg/kg/day, 5 mg/kg/day), and one dosage group of Erlotinib (50 mg/kg/day). […] The tumor size and body weight of nude mice were recorded twice weekly from the first day of administration. The tumor volume was calculated using formula (1×w^2), wherein 1 and w respectively represents the maximum and minimum size in each measurement. […]

Data set [1] in a line: Long-term toxicity experiment (28 days) in dogs. In kind it is in vivo. The procedure:
(§3) Experiment Animals: rats, male, 6-8 weeks of age, body weight: 180-250 g; dogs, male, about 24 months, body weight: 7-10 kg.
(§4) Preparation of sample: in rat's experiments the mixed formulation powder of the compound Ie was formulated into 0.1, 0.3 and 1 mg/mL homogeneous suspension for use; administration route: oral administration; […]. In dog's experiments the tablets of compound Ie were fed to dogs. […].
(§5) Sample collection: blood was collected at the time points of 1, 10, 20 and 28 days respectively, about 120-200 μL whole blood was collected from 3 animals at each time point. Blood was collected at 1 h, 4 h, 8 h and 24 h after administration.
(§6) Sample analysis: the collected samples were detected by LC-MS/MS, and the instrument model was SHIMADZU20 A-API4000.
(§7) Pharmacokinetic data analysis: the obtained plasma concentration data were fitted and calculated using WinNolin according to non-compartment model.

Data set [2] is described as follows: Long-term toxicity experiment (28 days) in rats. To be noted: for toxicity reaction: po. In kind it is in vivo. The procedure: as §3, §4, §5, §6, §7

Take `CN(C)C/C=C/C(=O)Nc1cc2c(Nc3ccc(F)c(Cl)c3)ncnc2cc1OC(F)F` [Compound Ie]: the IC50 came out at 0.204 µM in the data set on A549; 0.036 µM with CW-2; 0.057 µM with C-33A; 0.702 µM with H1650; 0.001 µM in the data set on NCI-N87; 1.69 µM in the data set with NCI-H2126. Further, the half-inhibitory concentration (IC50) with A431 came out at 1.24 µM; with NCI-H358, 0.195 µM; with FaDu, 0.169 µM; with NUGC-3, 0.055 µM. In the data set on N87(gastric cancer) (5, 10 mg/kg/day orally for 21 days), the “inhibitory and therapeutic effects on N87 tumor model” value is “strong inhibitory effects and therapeutic effects”. Besides, in the data set on N87(gastric cancer) (versus Lapatinib (90 mg/kg/day, twice daily)), the “inhibitory effects on tumor cell growth compared with other drugs, N87 model” value is “stronger inhibitory effects”. Besides, the toxicity reaction result in data set [1] (dog, in vivo, 1 mg/kg) is on record as “No toxicity reaction”; in data set [1] (dogs, 5 mg/kg, 28 days, reaction of Afatinib group greater than compound Ie group) it was “toxicity reactions”; in data set [2] (rat, in vivo, 1 mg/kg), “no toxicity reaction”; in [2] (rat, in vivo, 3 mg/kg) it was “no toxicity reaction”. The “reversibility of toxicity reaction after drug withdrawal” value in data set [2] (rat, in vivo) was “reversible”. The “AUC relative to Afatinib in the same dosage” value in data set [2] (rats, oral, 28 days) is given as “about 5 times”. Moreover, the “time after drug withdrawal until weight close to control group” value in [2] (rats, 1, 3 and 10 mg/kg groups) lay in the range of 5 to 6 days. The “weight recovery after drug withdrawal” value in [2] (rats, compound Ie 1, 3 and 10 mg/kg groups) was “regain weight very quickly”.
